Experimental data: patent US5223515A, “Injectable solution containing a pyridyl methylsulfinylbenzimidazole” (Takeda Chemical Industries, Ltd., priority 1988, dated 1993)
In brackets after ≈: the same amount, converted by molar mass.

Experiments:
[1] = Example 2 / Table 2: stability of Compound (I-1) in the solution state (2 mg/ml, mixed solvents); assay type: physicochemical
Method: Ethanol, polyethylene glycol 400, propylene glycol and water were mixed at the composition ratios as shown in Table 2 illustrated below, and 2 mg of Compound (I-1) was dissolved in 1 ml each of the resulting solvents, respectively, followed by adjustment to pH 9.0 with 5N-aqueous sodium hydroxide solution. As a control, there were prepared a suspension of 2 mg of Compound (I-1) in 1 ml of water being adjusted to pH 9.0 with 5N-aqueous sodium hydroxide solution and an aqueous solution of 2 mg of Compound (I-1) in 1 ml of 0.01N aqueous sodium hydroxide solution.

[2] = Solubility of Compound (I-1) in water at different pH; assay type: physicochemical
[3] = Stability of Compound (I-1) in aqueous solution; assay type: physicochemical
[4] = Example 1 / Table 1: stability of Compound (I-1) in the solution state (ethanol, propylene glycol); details: for Content: HPLC
Description: Note, *As measured by use of highperformance liquid chromatography (HPLC)
chromatographic conditions of HPLC:
Carrier; Nucleosil 5 C18 (supplied by GasChro Kogyo K.K. of Japan)
Solvent; Methanol:water:triethylamine (60:40:1, pH 7)
Detection method; UV spectrophotometry at 285 nm

[5] = Example 4 / Table 4: stability of lyophilized Compound (I-1) after being dissolved in vials; assay type: physicochemical; details: for Solubility: lyophilized powder
Method: A 1000 mg quantity of Compound (I-1) was dispersed in distilled water for
injection, and 3 ml of 1N-aqueous sodium hydroxide solution was added to
dissolve the Compound (I-1), followed by addition of water to make up the
total of 50 ml and sterile filtration by the conventional method. The
resulting filtrate was filled in 1 ml portions into vials of a 12 cm^3
capacity, followed by lyophilization by means of the conventional
technique. The lyophilized powder as contained in vials was dissolved in
in Solvent A (which was composed of 50 mg of N-methylglucamine, 0.27 ml of
1N-hydrochloric acid and 2 ml of propylene glycol being admixed with
ethanol to make up the total of 4 ml), Solvent B (which was composed of 50
mg of N-methylglucamine, 0.27 ml of 1N-hydrochloric acid, 1.2 ml of
polyethylene glycol 400 and 1.2 ml of ethanol being admixed with distilled
water for injection to make up the total of 4 ml), Solvent C (which was
composed of 50 mg of N-methylglucamine, 0.27 ml of 1N-hydrochloric acid,
1.2 ml of ethanol and 1.2 ml of propylene glycol being admixed with
distilled water for injection to make up the total of 4 ml and Solvent D
(which was composed of 50 mg of N-methylglucamine, 0.27 ml of
1N-hydrochloric acid and 2.5 ml of polyethylene glycol 400 bing admixed
with distilled water for injection to make up the total of 4 ml),
respectively, to perform inspection for their solubilities as well as to
conduct investigation into appearance, clarity and contents immediately
after dissolution and after storage at 25° C. for 24 hours.

[6] = Example 3 / Table 3: stability of Compound (I-1) in the solution state (5 mg/ml, mixed solvents); assay type: physicochemical
Method: Ethanol, polyethylene glycol 400, propylene glycol and water were mixed at the composition ratios as shown in Table 3 illustrated below, and 5-mg of Compound (I-1) was dissolved in 1 ml each of the resulting solvents, respectively, followed by adjustment to pH 9.0 with 5N-aqueous sodium hydroxide solution. As a control, there were prepared a suspension of 5 mg of Compound (I-1) in 1 ml of water being adjusted to pH 9.0 with 5N-aqueous sodium hydroxide solution and an aqueous solution of 5 mg of Compound (I-1) in 1 ml of 0.02N aqueous sodium hydroxide solution. […] (A control of the suspension was not subjected to sterile-filtration).
These test specimens as filled into ampoules were investigated for each item of appearance, pH and clarity immediately after preparation and after storage at 25° C.

[7] = control: 2 mg in 0.01 N aq. sodium hydroxide 1 ml, after preparation
[8] = control: 2 mg in 0.01 N aq. sodium hydroxide 1 ml, after storage at 25° C./24 hrs.
[9] = 2 mg in ethanol 1 ml, after preparation
[10] = 2 mg in ethanol 1 ml, after storage at 25° C./24 hrs.
[11] = 2 mg in propylene glycol 1 ml, after preparation
[12] = 2 mg in propylene glycol 1 ml, after storage at 25° C./24 hrs.
[13] = Solvent A, after storage at 25° C. for 24 hrs.
[14] = Solvent B, after storage at 25° C. for 24 hrs.
[15] = Solvent C, after storage at 25° C. for 24 hrs.
[16] = Solvent D, after storage at 25° C. for 24 hrs.
[17] = Solvents A-D, after storage for 24 hours
[18] = 5 mg, PEG-400 0.3 ml, ethanol 0.3 ml, water 0.4 ml, after preparation
[19] = 5 mg, PEG-400 0.4 ml, water 0.6 ml, after preparation
[20] = 5 mg, ethanol 0.3 ml, propylene glycol 0.3 ml, water 0.4 ml, after preparation
[21] = 5 mg, ethanol 0.6 ml, water, after preparation
[22] = control: 5 mg in 0.02 N aq. sodium hydroxide 1 ml, after preparation
[23] = control: 5 mg in 0.02 N aq. sodium hydroxide 1 ml, after storage at 25° C./24 hrs.

## Cc1c(OCC(F)(F)F)ccnc1C[S+]([O-])c1nc2ccccc2[nH]1 (centres unmarked) [Compound (I-1), 2-(3-methyl-4-trifluoroethoxy-2-pyridyl)methylsulfinylbenzimidazole]
[1]; 2 mg, PEG-400 0.05 ml, ethanol 0.35 ml, water 0.6 ml, after preparation
  Appearance: Colorless
[1]; 2 mg, PEG-400 0.05 ml, ethanol 0.35 ml, water 0.6 ml, after preparation (adjusted)
  pH: 9.0
[1]; 2 mg, PEG-400 0.05 ml, ethanol 0.35 ml, water 0.6 ml, after preparation (taken as 100.0%)
  Content: 100.0%
[1]; 2 mg, PEG-400 0.05 ml, ethanol 0.35 ml, water 0.6 ml, after storage at 25° C./24 hrs.
  Content: 98.0%
[1]; 2 mg, PEG-400 0.05 ml, propylene glycol 0.35 ml, water 0.6 ml, after preparation
  Appearance: Colorless
[1]; 2 mg, PEG-400 0.05 ml, propylene glycol 0.35 ml, water 0.6 ml, after preparation (adjusted)
  pH: 9.0
[1]; 2 mg, PEG-400 0.05 ml, propylene glycol 0.35 ml, water 0.6 ml, after preparation (taken as 100.0%)
  Content: 100.0%
[1]; 2 mg, PEG-400 0.05 ml, propylene glycol 0.35 ml, water 0.6 ml, after storage at 25° C./24 hrs.
  Content: 94.4%
[1]; 2 mg, PEG-400 0.4 ml, water 0.6 ml, after preparation
  Appearance: Colorless
[1]; 2 mg, PEG-400 0.4 ml, water 0.6 ml, after preparation (adjusted)
  pH: 9.0
[1]; 2 mg, PEG-400 0.4 ml, water 0.6 ml, after preparation (taken as 100.0%)
  Content: 100.0%
[1]; 2 mg, PEG-400 0.4 ml, water 0.6 ml, after storage at 25° C./24 hrs.
  Content: 91.8%
[1]; 2 mg, ethanol 0.5 ml, propylene glycol 0.5 ml, after preparation
  Appearance: Colorless
[1]; 2 mg, ethanol 0.5 ml, propylene glycol 0.5 ml, after preparation (adjusted)
  pH: 9.0
[1]; 2 mg, ethanol 0.5 ml, propylene glycol 0.5 ml, after preparation (taken as 100.0%)
  Content: 100.0%
[1]; 2 mg, ethanol 0.5 ml, propylene glycol 0.5 ml, after storage at 25° C./24 hrs.
  Content: 98.0%
[1]; control in water adjusted to same pH as other test specimens, 2 mg/ml
  dissolution of control specimens: failed to allow adequate dissolution
[1]; control, 2 mg/ml
  pH needed to secure dissolution of control specimens: not less than 11
[1]; [7]
  Appearance: Colorless
  pH: 11.4
[1]; control: 2 mg in 0.01 N aq. sodium hydroxide 1 ml, after preparation (taken as 100.0%)
  Content: 100.0%
[1]; [8]
  Appearance: Colorless
  Content: 92.5%
[1]; control: 2 mg in water 1 ml, after preparation (adjusted)
  pH: 9.1
[2]; pH 11, water
  Solubility: 1 mg/mL (≈ 2.71 mM)
[2]; pH 13, water
  Solubility: 33 mg/mL (≈ 89.3 mM)
[3]; alkaline solution
  stability in an aqueous solution: satisfactorily stable
[3]; neutral to acidic range, short period of time
  appearance of aqueous solution: dark purple
[3]; pH decreased to the neutral to acidic range
  stability in an aqueous solution: less stable
[4]; [9]
  Appearance: Colorless
  Clarity: Clear
[4]; 2 mg in ethanol 1 ml, after preparation (taken as 100.0%)
  Content: 100.0%
[4]; [10]
  Appearance: Yellowish
  Clarity: Clear
  Content: 99.2%
[4]; [11]
  Appearance: Colorless
  Clarity: Clear
[4]; [12]
  Appearance: Light red-purple
  Clarity: Clear
[4]; ethanol and propylene glycol, after storage at 25° C. for 24 hours
  change in appearance: slight change
[5]; Solvent A
  pH after dissolution: 8.7
[5]; Solvent A, after dissolution
  Appearance: Colorless
  Clarity: Clear
[5]; Solvent A, after dissolution (taken as 100%)
  Content: 100%
[5]; [13]
  Clarity: Clear
  Content: 97.0%
[5]; Solvent B
  pH after dissolution: 9.0
[5]; Solvent B, after dissolution
  Appearance: Colorless
  Clarity: Clear
[5]; Solvent B, after dissolution (taken as 100%)
  Content: 100%
[5]; [14]
  Clarity: Clear
  Content: 96.5%
[5]; Solvent C
  pH after dissolution: 9.0
[5]; Solvent C, after dissolution
  Appearance: Colorless
  Clarity: Clear
[5]; Solvent C, after dissolution (taken as 100%)
  Content: 100%
[5]; [15]
  Clarity: Clear
  Content: 96.7%
[5]; Solvent D
  pH after dissolution: 9.0
[5]; Solvent D, after dissolution
  Appearance: Colorless
  Clarity: Clear
[5]; Solvent D, after dissolution (taken as 100%)
  Content: 100%
[5]; [16]
  Clarity: Clear
  Content: 96.1%
[5]; Solvents A, B, C, D (one spanning entry), after storage at 25° C. for 24 hrs.
  Appearance: Slightly to lightly green-yellow
[5]; [17]
  change in content: decrease slightly
  change in the clarity: no change
[5]; Solvents A-D, immediately after dissolution and after storage for 24 hours
  changes in appearance: slight changes
[5]; all of these solvents (A-D)
  dissolution of lyophilized powder: dissolved quickly
  solubilities of lyophilized powder: excellent solubilities
[5]; Solvent A (propylene glycol/ethanol)
  Solubility: Good
[5]; Solvent B (PEG 400/ethanol/water)
  Solubility: Good
[5]; Solvent C (ethanol/propylene glycol/water)
  Solubility: Good
[5]; Solvent D (PEG 400/water)
  Solubility: Good
[6]; [18]
  Appearance: Colorless
  Clarity: Clear
[6]; 5 mg, PEG-400 0.3 ml, ethanol 0.3 ml, water 0.4 ml, after preparation (adjusted)
  pH: 9.0
[6]; 5 mg, PEG-400 0.3 ml, ethanol 0.3 ml, water 0.4 ml, after storage at 25° C./24 hrs.
  Clarity: Clear
[6]; [19]
  Appearance: Colorless
  Clarity: Clear
[6]; 5 mg, PEG-400 0.4 ml, water 0.6 ml, after preparation (adjusted)
  pH: 9.0
[6]; 5 mg, PEG-400 0.4 ml, water 0.6 ml, after storage at 25° C./24 hrs.
  Clarity: Clear
[6]; [20]
  Appearance: Colorless
  Clarity: Clear
[6]; 5 mg, ethanol 0.3 ml, propylene glycol 0.3 ml, water 0.4 ml, after preparation (adjusted)
  pH: 9.0
[6]; 5 mg, ethanol 0.3 ml, propylene glycol 0.3 ml, water 0.4 ml, after storage at 25° C./24 hrs.
  Clarity: Clear
[6]; [21]
  Appearance: Colorless
  Clarity: Clear
[6]; 5 mg, ethanol 0.6 ml, water, after preparation (adjusted)
  pH: 9.0
[6]; 5 mg, ethanol 0.6 ml, water, after storage at 25° C./24 hrs.
  Clarity: Clear
[6]; control in water adjusted to same pH as other test specimens, 5 mg/ml
  dissolution of control specimens: failed to allow adequate dissolution
[6]; control, 5 mg/ml
  pH needed to secure dissolution of control specimens: not less than 11
[6]; [22]
  Appearance: Colorless
  Clarity: Clear
  pH: 11.6
[6]; [23]
  Appearance: Colorless
  Clarity: Clear
[6]; control: 5 mg in water 1 ml, after preparation (adjusted)
  pH: 8.9
